# Results as given in patent publication US10670605B2, “Cysteine reactive probes and uses thereof” (The Scripps Research Institute, priority 2015, dated 2020).
# Legend:
# Experiment in all cases: Competitive isoTOP-ABPP, cell lysates
# Type in all cases: binding
# ACAT1 C196 (P24752) = molecular target: T1, ACAT1 C196 (P24752) (Homo sapiens, UniProt P24752); conditions: for isoTOP-ABPP reactivity ratio, P24752_C196 / isoTOP-ABPP reactivity profile ratio, P24752_C196: 500 μm
# T1 sequence (P24752 34-427): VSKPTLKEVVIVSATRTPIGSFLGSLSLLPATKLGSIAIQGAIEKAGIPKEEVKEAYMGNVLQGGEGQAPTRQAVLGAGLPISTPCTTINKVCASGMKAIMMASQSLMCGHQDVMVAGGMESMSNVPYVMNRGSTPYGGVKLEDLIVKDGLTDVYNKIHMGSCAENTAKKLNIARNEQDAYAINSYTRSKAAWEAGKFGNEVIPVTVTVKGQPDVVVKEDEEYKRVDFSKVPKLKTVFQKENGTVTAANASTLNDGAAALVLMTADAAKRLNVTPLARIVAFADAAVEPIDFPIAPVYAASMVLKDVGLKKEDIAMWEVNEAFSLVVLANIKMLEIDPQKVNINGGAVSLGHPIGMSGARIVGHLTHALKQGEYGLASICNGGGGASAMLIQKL
# ACAT1 C413 (P24752) = molecular target: T2, ACAT1 C413 (P24752) (Homo sapiens, UniProt P24752); conditions: for isoTOP-ABPP reactivity ratio, P24752_C413 / isoTOP-ABPP reactivity profile ratio, P24752_C413: 500 μm
# T2 sequence (P24752 34-427): T1 sequence (P24752 34-427)
# ACAT1 C126 (P24752) = molecular target: T3, ACAT1 C126 (P24752) (Homo sapiens, UniProt P24752)
# T3 sequence (P24752 34-427): T1 sequence (P24752 34-427)
# UBE2S C118 (Q16763) = molecular target: T4, UBE2S C118 (Q16763) (Homo sapiens, UniProt Q16763); conditions: for isoTOP-ABPP reactivity profile ratio, Q16763_C118: 500 μm
# T4 sequence (Q16763 1-222): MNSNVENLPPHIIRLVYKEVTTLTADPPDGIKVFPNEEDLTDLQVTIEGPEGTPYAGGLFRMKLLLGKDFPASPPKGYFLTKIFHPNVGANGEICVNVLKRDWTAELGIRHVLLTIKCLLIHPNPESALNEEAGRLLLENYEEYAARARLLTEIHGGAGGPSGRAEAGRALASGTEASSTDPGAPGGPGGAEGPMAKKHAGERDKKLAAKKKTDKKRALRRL
# PCK2 C306 (Q16822) = molecular target: T5, PCK2 C306 (Q16822) (Homo sapiens, UniProt Q16822); conditions: for isoTOP-ABPP reactivity profile ratio, Q16822_C306: 500 μm
# T5 sequence (Q16822 33-640): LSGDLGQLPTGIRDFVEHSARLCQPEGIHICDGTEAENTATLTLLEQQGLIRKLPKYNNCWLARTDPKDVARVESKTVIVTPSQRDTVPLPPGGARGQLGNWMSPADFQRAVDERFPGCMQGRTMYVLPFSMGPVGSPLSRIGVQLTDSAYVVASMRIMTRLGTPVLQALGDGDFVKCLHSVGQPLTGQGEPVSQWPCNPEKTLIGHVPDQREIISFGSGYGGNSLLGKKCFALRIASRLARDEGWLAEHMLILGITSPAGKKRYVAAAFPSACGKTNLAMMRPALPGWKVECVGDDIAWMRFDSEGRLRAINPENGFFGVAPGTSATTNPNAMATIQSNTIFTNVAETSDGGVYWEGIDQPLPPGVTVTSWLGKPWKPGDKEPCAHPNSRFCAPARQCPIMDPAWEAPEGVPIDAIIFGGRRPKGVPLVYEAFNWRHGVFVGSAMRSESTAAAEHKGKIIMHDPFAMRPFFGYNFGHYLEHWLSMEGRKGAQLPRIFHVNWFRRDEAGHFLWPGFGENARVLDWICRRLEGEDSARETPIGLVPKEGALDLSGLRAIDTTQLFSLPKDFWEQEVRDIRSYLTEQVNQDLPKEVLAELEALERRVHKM
# SMARCC2 C145 (Q8TAQ2) = SMARCC2 C145 (Q8TAQ2) (Homo sapiens, UniProt Q8TAQ2); conditions: for isoTOP-ABPP reactivity profile ratio, Q8TAQ2_C145: 500 μm
# SMARCC2 C145 (Q8TAQ2), sequence (Q8TAQ2 whole entry): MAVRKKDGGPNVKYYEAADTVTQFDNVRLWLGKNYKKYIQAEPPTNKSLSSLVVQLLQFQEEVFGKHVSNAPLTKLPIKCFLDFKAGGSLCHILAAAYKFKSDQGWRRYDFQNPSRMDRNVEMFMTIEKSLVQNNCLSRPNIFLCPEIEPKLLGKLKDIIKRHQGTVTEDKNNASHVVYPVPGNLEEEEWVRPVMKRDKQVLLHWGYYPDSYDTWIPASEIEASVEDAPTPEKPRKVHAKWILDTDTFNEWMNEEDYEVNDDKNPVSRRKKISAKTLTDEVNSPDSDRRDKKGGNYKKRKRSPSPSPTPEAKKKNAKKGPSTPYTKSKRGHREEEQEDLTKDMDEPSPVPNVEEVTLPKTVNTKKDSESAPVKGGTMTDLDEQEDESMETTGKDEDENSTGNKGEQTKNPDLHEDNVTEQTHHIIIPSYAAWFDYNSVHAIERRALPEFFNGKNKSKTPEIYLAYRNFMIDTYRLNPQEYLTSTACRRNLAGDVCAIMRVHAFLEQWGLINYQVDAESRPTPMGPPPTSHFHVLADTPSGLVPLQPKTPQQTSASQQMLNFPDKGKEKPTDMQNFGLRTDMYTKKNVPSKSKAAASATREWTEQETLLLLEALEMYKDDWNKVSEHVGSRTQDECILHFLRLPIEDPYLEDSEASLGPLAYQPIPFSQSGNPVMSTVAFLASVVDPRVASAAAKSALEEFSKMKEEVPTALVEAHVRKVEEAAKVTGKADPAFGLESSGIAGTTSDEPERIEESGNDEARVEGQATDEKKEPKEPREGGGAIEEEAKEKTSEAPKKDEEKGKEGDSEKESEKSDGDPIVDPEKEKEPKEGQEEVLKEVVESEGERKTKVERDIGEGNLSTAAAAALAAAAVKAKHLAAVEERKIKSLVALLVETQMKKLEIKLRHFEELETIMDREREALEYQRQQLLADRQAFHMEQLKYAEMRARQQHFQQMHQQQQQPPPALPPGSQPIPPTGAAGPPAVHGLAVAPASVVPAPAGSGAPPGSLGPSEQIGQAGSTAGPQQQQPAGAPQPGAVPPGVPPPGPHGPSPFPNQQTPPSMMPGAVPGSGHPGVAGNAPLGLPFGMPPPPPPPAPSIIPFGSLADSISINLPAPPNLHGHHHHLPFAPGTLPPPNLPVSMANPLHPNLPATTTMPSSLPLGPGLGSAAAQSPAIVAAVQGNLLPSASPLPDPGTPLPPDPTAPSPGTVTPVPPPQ
# UCHL3 C95 (P15374) = molecular target: T6, UCHL3 C95 (P15374) (Homo sapiens, UniProt P15374); conditions: for isoTOP-ABPP reactivity profile ratio, P15374_C95: 500 μm
# T6 sequence (P15374 1-230): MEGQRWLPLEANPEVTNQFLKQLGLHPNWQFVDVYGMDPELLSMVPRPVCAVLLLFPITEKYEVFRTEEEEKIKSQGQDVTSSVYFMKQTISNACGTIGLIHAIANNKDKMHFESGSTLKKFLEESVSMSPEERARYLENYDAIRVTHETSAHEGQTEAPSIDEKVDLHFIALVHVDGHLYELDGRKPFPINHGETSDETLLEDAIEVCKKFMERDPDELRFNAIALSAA
smiles,measurement,setting,value
O=C(CCl)N(Cc1ccc(F)cc1)C12CC3CC(CC(C3)C1)C2 [compound 34],"isoTOP-ABPP reactivity ratio, P24752_C196",ACAT1 C196 (P24752); in-vitro_ramos,1.0
same,"isoTOP-ABPP reactivity ratio, P24752_C196",ACAT1 C196 (P24752); in-vitro_ramos_231,0.8
same,"isoTOP-ABPP reactivity ratio, P24752_C413",ACAT1 C413 (P24752); in-vitro_ramos,1.3
same,"isoTOP-ABPP reactivity ratio, P24752_C413",ACAT1 C413 (P24752); in-vitro_ramos_231,0.9
same,"isoTOP-ABPP reactivity ratio, P24752_C126","ACAT1 C126 (P24752); 500 μm, in-vitro_ramos",1.1
O=C(CCl)N1CCc2cc(Br)ccc21 [compound 50],"isoTOP-ABPP reactivity profile ratio, P24752_C196",ACAT1 C196 (P24752); in-vitro_ramos_231,3.9
same,"isoTOP-ABPP reactivity profile ratio, Q16763_C118",UBE2S C118 (Q16763); in-vitro_ramos_231,0.8
same,"isoTOP-ABPP reactivity profile ratio, Q16822_C306",PCK2 C306 (Q16822); in-vitro_ramos_231,2.7
same,"isoTOP-ABPP reactivity profile ratio, Q8TAQ2_C145",SMARCC2 C145 (Q8TAQ2); in-vitro_ramos_231,2.8
same,"isoTOP-ABPP reactivity profile ratio, P15374_C95",UCHL3 C95 (P15374); in-vitro_ramos_231,1.3
same,"isoTOP-ABPP reactivity profile ratio, P24752_C413",ACAT1 C413 (P24752); in-vitro_ramos_231,9.2
same,"isoTOP-ABPP reactivity profile ratio, P24752_C126","ACAT1 C126 (P24752); 500 μm, in-vitro_ramos_231",20.0
N#CC(=Cc1ccc(-c2ccccc2Cl)o1)C(N)=O [compound 42],"isoTOP-ABPP reactivity profile ratio, P24752_C196",ACAT1 C196 (P24752); in-vitro_ramos,0.8
same,"isoTOP-ABPP reactivity profile ratio, Q16763_C118",UBE2S C118 (Q16763); in-vitro_ramos,0.8
same,"isoTOP-ABPP reactivity profile ratio, Q16822_C306",PCK2 C306 (Q16822); in-vitro_ramos,0.8
same,"isoTOP-ABPP reactivity profile ratio, Q8TAQ2_C145",SMARCC2 C145 (Q8TAQ2); in-vitro_ramos,1.0
same,"isoTOP-ABPP reactivity profile ratio, P15374_C95",UCHL3 C95 (P15374); in-vitro_ramos,0.9
same,"isoTOP-ABPP reactivity profile ratio, P24752_C413",ACAT1 C413 (P24752); in-vitro_ramos,0.7
same,"isoTOP-ABPP reactivity profile ratio, P24752_C126","ACAT1 C126 (P24752); 500 μm, in-vitro_ramos",0.8
COc1ccccc1OCCNC(=O)CCl [compound 28],"isoTOP-ABPP ratio (reactivity profile), P24752_C196",ACAT1 C196 (P24752); 500 μm in-vitro ramos,1.1
same,"isoTOP-ABPP ratio (reactivity profile), P24752_C196",ACAT1 C196 (P24752); 500 μm in-vitro ramos_231,1.0
same,"isoTOP-ABPP ratio (reactivity profile), Q16763_C118",UBE2S C118 (Q16763); 500 μm in-vitro ramos,0.8
same,"isoTOP-ABPP ratio (reactivity profile), Q16763_C118",UBE2S C118 (Q16763); 500 μm in-vitro ramos_231,1.0
same,"isoTOP-ABPP ratio (reactivity profile), Q16822_C306",PCK2 C306 (Q16822); 500 μm in-vitro ramos_231,1.1
same,"isoTOP-ABPP ratio (reactivity profile), Q8TAQ2_C145",SMARCC2 C145 (Q8TAQ2); 500 μm in-vitro ramos,1.2
same,"isoTOP-ABPP ratio (reactivity profile), Q8TAQ2_C145",SMARCC2 C145 (Q8TAQ2); 500 μm in-vitro ramos_231,1.1
same,"isoTOP-ABPP ratio (reactivity profile), P15374_C95",UCHL3 C95 (P15374); 500 μm in-vitro ramos,0.9
same,"isoTOP-ABPP ratio (reactivity profile), P15374_C95",UCHL3 C95 (P15374); 500 μm in-vitro ramos_231,1.1
same,"isoTOP-ABPP ratio (reactivity profile), P24752_C413",ACAT1 C413 (P24752); 500 μm in-vitro ramos,1.4
same,"isoTOP-ABPP ratio (reactivity profile), P24752_C413",ACAT1 C413 (P24752); 500 μm in-vitro ramos_231,1.2
same,"isoTOP-ABPP ratio (reactivity profile), P24752_C126",ACAT1 C126 (P24752); 500 μm in-vitro ramos,1.6
same,"isoTOP-ABPP ratio (reactivity profile), P24752_C126",ACAT1 C126 (P24752); 500 μm in-vitro ramos_231,1.7
